Laboratory results: patent US12421210B2, “Fused bicyclic heterocycles as therapeutic agents” (NEW YORK UNIVERSITY, priority 2018, dated 2025)

Molecular target: human NAMPT enzyme (His-hNAMPT) (Homo sapiens (Human), UniProt P43490)
Assay: NAMPT enzymatic inhibition assay (fluorescence, NADH product)
Assay type: biochemical
Settings: [BPS]; read-out: NAMPT IC50 (μM) [BPS]
Method: The compounds were then diluted 20 fold in an intermediate dilution to 5% DMSO and water. Finally 10 μL of each compound was added to the assay plate, in duplicate, with highest concentration at 30 μM and the lowest at 0.001 μM in a final volume of 50 μL and 1% DMSO concentration. Each assay also tested, in parallel, two reference compounds, FK866 and GMX1778, with highest concentration at 10 μM and lowest at 0.0003 μM. 200 ng of human NAMPT enzyme (His-hNAMPT obtained from E. coli expression system) diluted in […] (tris-buffered saline-Polysorbate 20) 1× was added to each well in a volume of 10 μL and the compounds were incubated with the enzyme at room temperature for 20 minutes. After the incubation, 30 μL of master mixture were added to each well. The master mixture contained: 50 mM Tris-HCl, pH 8.0, 12.5 mM MgCl2, 20 μM nicotinamide, 40 μM phosphoribosyl pyrophosphate (PRPP), 20 μM adenosine triphosphate (ATP), 30 μg/mL of alcohol dehydrogenase, 10 μg/mL of NMNAT, 1.5% alcohol, 1 mM dithiothreitol (DTT), 0.02% bovine serum albumin (BSA), 0.01% Tween 20. The reaction was performed at 30° C. for 60 minutes. Fluorescence intensity was measured at an excitation of 340 nm and an emission of 460 nm using a Tecan Infinite M1000 microplate reader. The fluorescence values indicated increase of NADH product.
Enzyme activity assay was performed in duplicate at each concentration. The fluorescence data was analyzed and compared. In the absence of the compound, the intensity (Ce) in each data set was defined as 100% activity. In the absence of enzyme, the intensity (C0) in each data set was defined as 0% activity. The percent activity in the presence of each compound was calculated according to the following equation: % activity=(C−C0)/(Ce−C0), where C is the fluorescence in the presence of the compound.
The % activity vs. compound concentrations were then plotted using non-linear regression analysis of Sigmoidal dose-response curve generated with the equation Y=B+(T−B)/1+10^((Log EC50-X)×Hill Slope), where Y is percent activity, B is minimum percent activity, T is maximum percent activity, X is logarithm of compound and Hill Slope=slope factor or Hill coefficient.

Sequence of human NAMPT enzyme (His-hNAMPT) (P43490 whole entry): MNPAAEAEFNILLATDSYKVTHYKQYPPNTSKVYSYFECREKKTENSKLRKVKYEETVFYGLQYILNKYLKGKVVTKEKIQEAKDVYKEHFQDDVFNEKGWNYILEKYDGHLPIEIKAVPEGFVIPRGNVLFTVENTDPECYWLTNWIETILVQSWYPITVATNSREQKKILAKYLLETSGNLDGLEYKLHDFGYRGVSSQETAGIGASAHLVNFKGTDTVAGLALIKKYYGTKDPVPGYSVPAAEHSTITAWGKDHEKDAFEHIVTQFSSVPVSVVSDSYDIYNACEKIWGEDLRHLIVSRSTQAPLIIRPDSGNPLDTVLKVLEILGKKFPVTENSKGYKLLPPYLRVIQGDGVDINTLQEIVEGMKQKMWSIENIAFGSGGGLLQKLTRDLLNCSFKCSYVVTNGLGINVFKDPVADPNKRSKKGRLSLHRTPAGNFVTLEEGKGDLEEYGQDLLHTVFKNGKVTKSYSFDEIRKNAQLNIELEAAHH

IC50 [µM]	Structure (SMILES)
> 30	CC(C)(C)OC(=O)N1C[C@@H]2[C@@H](CCNC(=O)C(C)(C)C)[C@@H]2C1 [Example 8, (1R,5S,6s)-tert-butyl 6-(2-pivalamidoethyl)-3-azabicyclo[3.1.0]hexane-3-carboxylate]
0.01 to 0.49	CC(C)(C)OC(=O)N1C[C@@H]2[C@@H](CCNC(=O)[C@H]3C[C@@H]3c3cccnc3)[C@@H]2C1 [Example 10, (1R,5S,6s)-tert-butyl 6-(2-((1R,2R)-2-(pyridin-3-yl)cyclopropanecarbox-amido)ethyl)-3-azabicyclo[3.1.0]hexane-3-carboxylate]
0.5 to 0.99	CC(C)(C)OC(=O)N1C[C@@H]2[C@@H](CCNC(=O)c3nc4ccncc4s3)[C@@H]2C1 [Example 11, (1R,5S,6s)-tert-butyl 6-(2-(thiazolo[5,4-c]pyridine-2-carboxamido)ethyl)-3-azabicyclo[3.1.0]hexane-3-carboxylate]
< 0.01	CC(C)(C)OC(=O)N1C[C@@H]2[C@@H](CCNC(=O)c3cc(-c4cccnc4)on3)[C@@H]2C1 [Example 12, (1R,5S,6s)-tert-butyl 6-(2-(5-(pyridin-3-yl)isoxazole-3-carboxamido)ethyl)-3-azabicyclo[3.1.0]hexane-3-carboxylate]
> 30	CC(=O)NCC[C@@H]1[C@H]2CN(C(=O)OC(C)(C)C)C[C@@H]12 [Example 14, (1R,5S,6s)-tert-butyl 6-(2-azetamidoethyl)-3-azabicyclo[3.1.0]hexane-3-carboxylate]
0.01 to 0.49	CC(C)(C)OC(=O)N1C[C@@H]2[C@@H](CCNC(=O)N3Cc4ccccc4C3)[C@@H]2C1 [Example 15, (1R,5S,6s)-tert-butyl 6-(2-(isoindoline-2-carboxamido)ethyl)-3-azabicyclo[3.1.0]hexane-3-carboxylate]
0.01 to 0.49	CC(C)(C)OC(=O)N1C[C@@H]2[C@@H](CCNC(=O)N3CCc4sccc4C3)[C@@H]2C1 [Example 16, (1R,5S,6s)-tert-butyl 6-(2-(4,5,6,7-tetrahydrothioeno[3,2-c]pyridine-5-carboxamido)ethyl)-3-azabicyclo[3.1.0]hexane-3-carboxylate]
0.01 to 0.49	CC(C)(C)OC(=O)N1C[C@@H]2[C@@H](CCNC(=O)N3CC(c4cccnc4)C3)[C@@H]2C1 [Example 17, (1R,5S,6s)-tert-butyl 6-(2-(3-(pyridin-3-yl)azetidine-1-carboxamido)ethyl)-3-azabicyclo[3.1.0]hexane-3-carboxylate]
0.01 to 0.49	CC(C)(C)OC(=O)N1C[C@@H]2[C@@H](CCNC(=NC#N)Nc3ccncc3)[C@@H]2C1 [Example 18, (1R,5S,6s)-tert-butyl 6-(2-((E)-2-cyano-3-(pyridin-4-yl)guanidino)ethyl)-3-azabicyclo[3.1.0]hexane-3-carboxylate]
0.01 to 0.49	CC(C)(C)OC(=O)N1C[C@@H]2[C@@H](CCNC(=O)NCc3cccnc3)[C@@H]2C1 [Example 19, (1R,5S,6s)-tert-butyl 6-(2-(3-((pyridin-3-yl)methyl)ureido)ethyl)-3-azabicyclo[3.1.0]hexane-3-carboxylate]
0.01 to 0.49	CC(C)(C)OC(=O)N1C[C@@H]2[C@@H](CCNC(=O)N3Cc4ccncc4C3)[C@@H]2C1 [Example 20, (1R,5S,6s)-tert-butyl 6-(2-(2,3-dihydro-1H-pyrrolo[3,4-c]pyridine-2-carboxamido)ethyl)-3-azabicyclo[3.1.0]hexane-3-carboxylate]
0.01 to 0.49	CC1(OC(=O)N2C[C@@H]3[C@@H](CCNC(=O)/C=C/c4cccnc4)[C@@H]3C2)COC1 [Example 21, (1R,5S,6s)-3-methyloxetan-3-yl 6-(2-((E)-3-(pyridin-3-yl)acrylamido)ethyl)-3-azabicyclo[3.1.0]hexane-3-carboxylate]
0.01 to 0.49	O=C(/C=C/c1cccnc1)NCC[C@@H]1[C@H]2CN(C(=O)c3ccccc3)C[C@@H]12 [Example 22, (E)-N-(2-((1R,5S,6s)-3-benzoyl-3-azabicyclo[3.1.0]hexan-6-yl)ethyl)-3-(pyridin-3-yl)acrylamide]
0.01 to 0.49	O=C(/C=C/c1cccnc1)NCC[C@@H]1[C@H]2CN(S(=O)(=O)c3ccccc3)C[C@@H]12 [Example 23, (E)-N-(2-((1R,5S,6s)-3-(phenylsulfonyl)-3-azabicyclo[3.1.0]hexan-6-yl)ethyl)-3-(pyridin-3-yl)acrylamide]
0.01 to 0.49	CC1(OC(=O)N2C[C@@H]3[C@@H](CCNC(=O)/C=C/c4ccc(N)nc4)[C@@H]3C2)COC1 [Example 24, (1R,5S,6s)-3-methyloxetan-3-yl 6-(2-((E)-3-(6-aminopyridin-3-yl)acrylamido)ethyl)-3-azabicyclo[3.1.0]hexane-3-carboxylate]
0.01 to 0.49	Nc1ccc(/C=C/C(=O)NCC[C@@H]2[C@H]3CN(C(=O)c4ccccc4)C[C@@H]23)cn1 [Example 25, (E)-3-(6-aminopyridin-3-yl)-N-(2-((1R,5S,6s)-3-benzoyl-3-azabicyclo[3.1.0]hexan-6-yl)ethyl)acrylamide]
0.01 to 0.49	CC1(OC(=O)N2C[C@@H]3[C@@H](CCNC(=O)c4cc5ccncc5s4)[C@@H]3C2)COC1 [Example 26, (1R,5S,6s)-3-methyloxetan-3-yl 6-(2-(thieno[2,3-c]pyridine-2-carboxamido)ethyl)-3-azabicyclo[3.1.0]hexane-3-carboxylate]
0.01 to 0.49	CC1(OC(=O)N2C[C@@H]3[C@@H](CCNC(=O)c4cc5ccncc5o4)[C@@H]3C2)COC1 [Example 27, (1R,5S,6s)-3-methyloxetan-3-yl 6-(2-(furo[2,3-c]pyridine-2-carboxamido)ethyl)-3-azabicyclo[3.1.0]hexane-3-carboxylate]
0.01 to 0.49	Nc1ccc(/C=C/C(=O)NCC[C@@H]2[C@H]3CN(C(=O)NCc4ccccc4)C[C@@H]23)cn1 [Example 28, (1R,5S,6s)-6-(2-((E)-3-(6-aminopyridin-3-yl)acrylamido)ethyl)-N-benzyl-3-azabicyclo[3.1.0]hexane-3-carboxamide]
0.01 to 0.49	Nc1ccc(/C=C/C(=O)NCC[C@@H]2[C@H]3CN(C(=O)N4CCOCC4)C[C@@H]23)cn1 [Example 29, (E)-3-(6-aminopyridin-3-yl)-N-(2-((1R,5S,6s)-3-(morpholine-4-carbonyl)-3-azabicyclo[3.1.0]hexan-6-yl)ethyl)acrylamide]
0.01 to 0.49	O=C(NCC[C@@H]1[C@H]2CN(C(=O)c3ccccc3)C[C@@H]12)c1cc2ccncc2o1 [Example 30, N-(2-((1R,5S,6s)-3-benzoyl-3-azabicyclo[3.1.0]hexan-6-yl)ethyl)furo[2,3-c]pyridine-2-carboxamide]
0.01 to 0.49	Nc1ccc(/C=C/C(=O)NCC[C@@H]2[C@H]3CN(C(=O)Nc4ccccc4)C[C@@H]23)cn1 [Example 31, (1R,5S,6s)-6-(2-((E)-3-(6-aminopyridin-3-yl)acrylamido)ethyl)-N-phenyl-3-azabicyclo[3.1.0]hexane-3-carboxamide]
0.01 to 0.49	Nc1ccc(/C=C/C(=O)NCC[C@@H]2[C@H]3CN(C(=O)NC4CCOCC4)C[C@@H]23)cn1 [Example 32, (1R,5S,6s)-6-(2-((E)-3-(6-aminopyridin-3-yl)acrylamido)ethyl)-N-(tetrahydro-2H-pyran-4-yl)-3-azabicyclo[3.1.0]hexane-3-carboxamide]
0.01 to 0.49	CCN(CC)C(=O)N1C[C@@H]2[C@@H](CCNC(=O)/C=C/c3ccc(N)nc3)[C@@H]2C1 [Example 33, (1R,5S,6s)-6-(2-((E)-3-(6-aminopyridin-3-yl)acrylamido)ethyl)-N,N-diethyl-3-azabicyclo[3.1.0]hexane-3-carboxamide]
0.01 to 0.49	Nc1ccc(/C=C/C(=O)NCC[C@@H]2[C@H]3CN(C(=O)OC4CCCC4)C[C@@H]23)cn1 [Example 34, (1R,5S,6s)-cyclopentyl 6-(2-((E)-3-(6-aminopyridin-3-yl)acrylamido)ethyl)-3-azabicyclo[3.1.0]hexane-3-carboxylate]

Same assay, conditions: [HDB]; read-out: NAMPT IC50 (μM) [HDB]

IC50 [µM]	Structure (SMILES)
0.01 to 0.49	Cc1noc2ncc(/C=C/C(=O)NCC[C@@H]3[C@H]4CN(C(=O)OC(C)(C)C)C[C@@H]34)cc12 [Example 9, tert-butyl (1R,5S,6s)-6-(2-((E)-3-(3-methylisoxazolo[5,4-b]pyridin-5-yl)acrylamido)ethyl)-3-azabicyclo[3.1.0]hexane-3-carboxylate]
0.01 to 0.49	CC(C)(C)OC(=O)N1C[C@@H]2[C@@H](CCNC(=O)c3cc4cc(N)ncc4s3)[C@@H]2C1 [Example 13, (1R,5S,6s)-tert-butyl 6-(2-(5-aminothieno[2,3-c]pyridine-2-carboxamido)ethyl)-3-azabicyclo[3.1.0]hexane-3-carboxylate]
< 0.01	CC(C)(C)OC(=O)N1C[C@@H]2[C@@H](CCNC(=O)N3CC(c4cccnc4)C3)[C@@H]2C1 [Example 17, (1R,5S,6s)-tert-butyl 6-(2-(3-(pyridin-3-yl)azetidine-1-carboxamido)ethyl)-3-azabicyclo[3.1.0]hexane-3-carboxylate]
0.01 to 0.49	O=C(/C=C/c1cccnc1)NCC[C@@H]1[C@H]2CN(S(=O)(=O)c3ccccc3)C[C@@H]12 [Example 23, (E)-N-(2-((1R,5S,6s)-3-(phenylsulfonyl)-3-azabicyclo[3.1.0]hexan-6-yl)ethyl)-3-(pyridin-3-yl)acrylamide]
0.01 to 0.49	Nc1ccc(/C=C/C(=O)NCC[C@@H]2[C@H]3CN(C(=O)c4ccccc4)C[C@@H]23)cn1 [Example 25, (E)-3-(6-aminopyridin-3-yl)-N-(2-((1R,5S,6s)-3-benzoyl-3-azabicyclo[3.1.0]hexan-6-yl)ethyl)acrylamide]
0.01 to 0.49	O=C(NCC[C@@H]1[C@H]2CN(C(=O)c3ccccc3)C[C@@H]12)c1cc2ccncc2o1 [Example 30, N-(2-((1R,5S,6s)-3-benzoyl-3-azabicyclo[3.1.0]hexan-6-yl)ethyl)furo[2,3-c]pyridine-2-carboxamide]
